Experimental data: patent US8957063B2, “Amine and ether compounds which modulate the CB2 receptor” (priority 2008, dated 2015)
pEC50: −log10 of the molar value.

Molecular target: T1, human CB2R (Homo sapiens, UniProt P34972)
T1 construct: host or cells: CHO cells
Assay: CB2R mediated modulation of cAMP synthesis
Type: cell-based
Procedure: B. CB2R Mediated Modulation of cAMP Synthesis:
Compounds of the invention were evaluated for their CB2 agonist or inverse agonistic activity in accordance with the following experimental method.
CHO cells expressing human CB2R (Euroscreen) were plated at a density of 5000 cells per well in 384 well plates and incubated overnight at 37° C. After removing the media, the cells were treated with test compounds diluted in stimulation buffer containing 1 mM IBMX, 0.25% BSA and 10 uM Forskolin. The assay was incubated for 30 minutes at 37° C. Cells were lysed and the cAMP concentration was measured using DiscoverX-XS cAMP kit, following the manufacturer's protocol. In this setting, agonists will decrease forskolin induced production of cAMP while inverse agonists will further increase forskolin induced production of cAMP. EC50 of agonists were calculated as follows. The maximal amount of cAMP produced by forskolin compared to the level of cAMP inhibited by 1 uM CP55940 is defined as 100%. The EC50 value of each test compound was determined as the concentration at which 50% of the forskolin-stimulated cAMP synthesis was inhibited. Data was analyzed using a four-parameter logistic model. (Model 205 of XLfit 4.0).

T1 sequence (P34972 whole entry): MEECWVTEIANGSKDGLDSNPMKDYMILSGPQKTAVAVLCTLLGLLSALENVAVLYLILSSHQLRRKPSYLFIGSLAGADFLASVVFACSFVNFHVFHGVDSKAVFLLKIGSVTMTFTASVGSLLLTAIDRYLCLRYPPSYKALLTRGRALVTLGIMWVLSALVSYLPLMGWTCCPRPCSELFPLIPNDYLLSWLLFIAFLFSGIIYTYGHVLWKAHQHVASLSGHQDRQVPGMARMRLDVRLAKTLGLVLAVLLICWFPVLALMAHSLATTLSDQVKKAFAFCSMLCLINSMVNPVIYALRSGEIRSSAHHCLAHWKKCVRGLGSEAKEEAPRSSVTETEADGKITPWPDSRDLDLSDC

CN(C(=O)N1CCS(=O)(=O)CC1)C(C)(C)C(=O)Nc1cc(C(C)(C)C)on1 [Example 51, 1,1-Dioxo-1λ6-thiomorpholine-4-carboxylic acid [1-(5-tert-butyl-isoxazol-3-ylcarbamoyl)-1-methyl-ethyl]-methyl-amide]
pEC50: 7.41
